# Earlier results, collected in US20040023937A1, “Anti-cancer formulation” (Greystone Medical Group, Inc., priority 2002, published 2004).
# Tests used:
# human fibrosarcoma cells = conditions: reported
# MMP-9 = conditions: gelatin degrading matrix metalloproteinase; mechanism reported to be thought to involve it
# MMP-2 = conditions: second of two gelatin degrading MMP's; reported
compound,measurement,setting,value
C[C@H]1[C@H](C)CC[C@]2(C(=O)O)CC[C@]3(C)C(=CC[C@@H]4[C@@]5(C)CC[C@H](O)C(C)(C)[C@@H]5CC[C@]43C)[C@H]12 [Ursolic acid],anti-invasive activity,human fibrosarcoma cells,anti-invasive activity
same,down-regulation of MMP-9,MMP-9,down-regulation
same,effect on MMP-2,MMP-2,no effect
